Source: the kinase profiling compilation of Christmann-Franck et al. (2016)

What was measured:
Assay in all cases: KINOMEscan competition binding
Details in all cases: compound 0.1 µM
MYLK3 (human) = MYLK3 (human) (UniProt Q32MK0)
MAP3K3 (human) = MAP3K3 (human) (UniProt Q99759)
FGR (human) = FGR (human) (UniProt P09769)
ROCK2 (human) = ROCK2 (human) (UniProt O75116)
PKMYT1 (human) = PKMYT1 (human) (UniProt Q99640)
MAP3K5 (human) = MAP3K5 (human) (UniProt Q99683)
STK33 (human) = STK33 (human) (UniProt Q9BYT3)
RPS6KA2 KD1 (human) = RPS6KA2 KD1 (human) (UniProt Q15349)
FGFR3 (human) = FGFR3 (human) (UniProt P22607)
YES1 (human) = YES1 (human) (UniProt P07947)
GRK1 (human) = GRK1 (human) (UniProt Q15835)
[1] = tested on: PIK3CA (human), P42336 [E545A]
[2] = tested on: EGFR (human), P00533 [752-759 del]
SRMS (human) = SRMS (human) (UniProt Q9H3Y6)
Sequence of SRMS (human) (Q9H3Y6 whole entry, looked up): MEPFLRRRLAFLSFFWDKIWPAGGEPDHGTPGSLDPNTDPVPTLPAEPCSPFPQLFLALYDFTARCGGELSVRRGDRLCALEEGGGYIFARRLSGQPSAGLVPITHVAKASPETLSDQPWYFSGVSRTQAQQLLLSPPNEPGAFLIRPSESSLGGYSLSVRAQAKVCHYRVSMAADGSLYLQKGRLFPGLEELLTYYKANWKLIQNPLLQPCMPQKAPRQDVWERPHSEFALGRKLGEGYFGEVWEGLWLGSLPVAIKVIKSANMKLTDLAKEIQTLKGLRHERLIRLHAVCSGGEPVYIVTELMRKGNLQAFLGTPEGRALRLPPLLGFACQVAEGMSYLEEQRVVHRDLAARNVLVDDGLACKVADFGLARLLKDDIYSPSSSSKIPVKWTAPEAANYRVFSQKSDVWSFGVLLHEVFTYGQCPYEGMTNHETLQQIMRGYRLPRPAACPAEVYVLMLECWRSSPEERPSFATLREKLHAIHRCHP

SIK3 (human) = SIK3 (human) (UniProt Q9Y2K2)
PIM1 (human) = PIM1 (human) (UniProt P11309)
Sequence of PIM1 (human) (P11309 whole entry, looked up): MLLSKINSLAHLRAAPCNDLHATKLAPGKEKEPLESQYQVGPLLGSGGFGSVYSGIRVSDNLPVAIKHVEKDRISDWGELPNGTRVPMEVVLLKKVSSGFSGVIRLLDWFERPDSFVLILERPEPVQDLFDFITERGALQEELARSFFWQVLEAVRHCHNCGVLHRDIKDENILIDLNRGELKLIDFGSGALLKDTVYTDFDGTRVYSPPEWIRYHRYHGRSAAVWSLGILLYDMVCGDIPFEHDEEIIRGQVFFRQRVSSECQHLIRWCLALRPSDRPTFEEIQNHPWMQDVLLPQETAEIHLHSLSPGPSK

BRAF (human) = BRAF (human) (UniProt P15056)
BUB1 (human) = BUB1 (human) (UniProt O43683)
CDK3 (human) = CDK3 (human) (UniProt Q00526)
Sequence of CDK3 (human) (Q00526 whole entry, looked up): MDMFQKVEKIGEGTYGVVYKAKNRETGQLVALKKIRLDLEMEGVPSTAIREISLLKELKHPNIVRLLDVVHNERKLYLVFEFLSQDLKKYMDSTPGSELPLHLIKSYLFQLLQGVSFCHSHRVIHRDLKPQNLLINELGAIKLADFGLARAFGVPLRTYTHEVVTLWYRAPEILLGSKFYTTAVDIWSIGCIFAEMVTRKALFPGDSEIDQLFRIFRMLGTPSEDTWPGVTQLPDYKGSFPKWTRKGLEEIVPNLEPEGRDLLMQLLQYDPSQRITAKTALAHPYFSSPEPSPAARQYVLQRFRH

WEE1 (human) = WEE1 (human) (UniProt P30291)
PKN3 (M.tuberculosis) = PKN3 (M.tuberculosis) (UniProt Q6P5Z2)
CIT (human) = CIT (human) (UniProt O14578)
[3] = tested on: EGFR (human), P00533 [746-750 del]
MERTK (human) = MERTK (human) (UniProt Q12866)
MAP3K9 (human) = MAP3K9 (human) (UniProt P80192)
HIPK4 (human) = HIPK4 (human) (UniProt Q8NE63)
Sequence of HIPK4 (human) (Q8NE63 whole entry, looked up): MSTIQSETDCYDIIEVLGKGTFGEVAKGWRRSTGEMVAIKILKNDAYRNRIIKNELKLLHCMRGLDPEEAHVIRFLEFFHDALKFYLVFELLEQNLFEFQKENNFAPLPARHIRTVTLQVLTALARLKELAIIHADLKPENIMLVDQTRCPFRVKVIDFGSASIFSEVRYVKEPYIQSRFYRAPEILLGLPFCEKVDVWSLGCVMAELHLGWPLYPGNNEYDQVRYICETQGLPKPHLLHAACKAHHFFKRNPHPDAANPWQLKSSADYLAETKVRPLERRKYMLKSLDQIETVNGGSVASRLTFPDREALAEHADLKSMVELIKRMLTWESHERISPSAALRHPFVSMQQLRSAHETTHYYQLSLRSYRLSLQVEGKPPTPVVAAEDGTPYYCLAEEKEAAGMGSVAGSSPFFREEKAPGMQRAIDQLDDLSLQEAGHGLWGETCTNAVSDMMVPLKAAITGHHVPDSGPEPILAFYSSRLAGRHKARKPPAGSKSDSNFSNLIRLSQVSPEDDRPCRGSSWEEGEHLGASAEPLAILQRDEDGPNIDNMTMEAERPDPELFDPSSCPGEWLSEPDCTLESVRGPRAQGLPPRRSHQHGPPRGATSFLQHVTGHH

DAPK3 (human) = DAPK3 (human) (UniProt O43293)
Sequence of DAPK3 (human) (O43293 whole entry, looked up): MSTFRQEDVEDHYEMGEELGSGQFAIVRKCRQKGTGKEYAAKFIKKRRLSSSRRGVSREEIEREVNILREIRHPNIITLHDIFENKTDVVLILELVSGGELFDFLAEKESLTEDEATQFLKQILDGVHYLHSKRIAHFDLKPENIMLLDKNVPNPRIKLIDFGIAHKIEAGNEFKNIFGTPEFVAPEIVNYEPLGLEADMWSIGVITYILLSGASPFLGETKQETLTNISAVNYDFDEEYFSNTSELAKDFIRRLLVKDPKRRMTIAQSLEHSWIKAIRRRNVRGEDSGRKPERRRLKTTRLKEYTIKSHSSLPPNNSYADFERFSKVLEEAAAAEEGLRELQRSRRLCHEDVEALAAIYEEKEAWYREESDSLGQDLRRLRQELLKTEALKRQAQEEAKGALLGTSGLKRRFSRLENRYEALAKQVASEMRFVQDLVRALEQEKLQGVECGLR

MAP3K1 (human) = MAP3K1 (human) (UniProt Q13233)
Sequence of MAP3K1 (human) (Q13233 whole entry, looked up): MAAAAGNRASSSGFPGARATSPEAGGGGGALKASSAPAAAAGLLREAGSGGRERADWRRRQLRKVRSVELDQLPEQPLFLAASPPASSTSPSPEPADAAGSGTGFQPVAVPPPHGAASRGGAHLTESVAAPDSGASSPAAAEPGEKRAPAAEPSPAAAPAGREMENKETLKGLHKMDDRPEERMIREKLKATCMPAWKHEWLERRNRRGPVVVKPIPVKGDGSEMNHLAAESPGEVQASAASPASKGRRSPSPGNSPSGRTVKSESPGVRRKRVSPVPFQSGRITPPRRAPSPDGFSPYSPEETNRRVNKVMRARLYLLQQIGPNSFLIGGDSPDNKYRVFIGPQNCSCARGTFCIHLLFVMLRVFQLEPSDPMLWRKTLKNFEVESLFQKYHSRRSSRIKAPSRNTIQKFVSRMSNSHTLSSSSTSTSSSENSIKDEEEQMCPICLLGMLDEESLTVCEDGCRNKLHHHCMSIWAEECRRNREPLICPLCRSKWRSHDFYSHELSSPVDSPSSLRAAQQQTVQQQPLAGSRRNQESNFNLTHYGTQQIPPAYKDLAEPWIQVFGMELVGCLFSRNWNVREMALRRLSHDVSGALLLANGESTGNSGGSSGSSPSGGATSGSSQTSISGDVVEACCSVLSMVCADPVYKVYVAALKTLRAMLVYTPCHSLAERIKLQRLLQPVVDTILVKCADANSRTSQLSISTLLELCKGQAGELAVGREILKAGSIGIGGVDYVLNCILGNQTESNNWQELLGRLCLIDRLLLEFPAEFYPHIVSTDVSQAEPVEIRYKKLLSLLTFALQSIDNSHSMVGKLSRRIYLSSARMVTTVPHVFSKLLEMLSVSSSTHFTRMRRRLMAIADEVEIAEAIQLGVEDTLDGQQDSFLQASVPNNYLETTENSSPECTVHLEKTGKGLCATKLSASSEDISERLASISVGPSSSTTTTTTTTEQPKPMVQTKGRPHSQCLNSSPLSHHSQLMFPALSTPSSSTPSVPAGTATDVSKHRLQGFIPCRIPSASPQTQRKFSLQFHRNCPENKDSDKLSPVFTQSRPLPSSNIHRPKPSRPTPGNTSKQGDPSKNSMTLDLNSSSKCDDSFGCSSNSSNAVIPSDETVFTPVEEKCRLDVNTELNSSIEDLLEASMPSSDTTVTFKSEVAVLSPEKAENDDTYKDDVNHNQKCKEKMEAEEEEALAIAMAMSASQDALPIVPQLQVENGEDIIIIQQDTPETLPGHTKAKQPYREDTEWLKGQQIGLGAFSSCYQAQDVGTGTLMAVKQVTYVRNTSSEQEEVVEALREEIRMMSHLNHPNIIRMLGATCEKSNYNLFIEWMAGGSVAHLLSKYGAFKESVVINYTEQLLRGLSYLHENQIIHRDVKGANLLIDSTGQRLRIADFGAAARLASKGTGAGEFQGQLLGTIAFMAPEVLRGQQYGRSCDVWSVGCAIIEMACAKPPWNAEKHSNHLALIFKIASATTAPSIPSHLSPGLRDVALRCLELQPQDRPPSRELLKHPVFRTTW

IKBKE (human) = IKBKE (human) (UniProt Q14164)
EPHB4 (human) = EPHB4 (human) (UniProt P54760)
PLK1 (human) = PLK1 (human) (UniProt P53350)
CaMK1 (human) = CaMK1 (human) (UniProt Q14012)
CSNK1G2 (human) = CSNK1G2 (human) (UniProt P78368)
LIMK1 (human) = LIMK1 (human) (UniProt P53667)
AURKB (human) = AURKB (human) (UniProt Q96GD4)
SGK3 (human) = SGK3 (human) (UniProt Q96BR1)
PAK3 (human) = PAK3 (human) (UniProt O75914)
EGFR (human) = EGFR (human) (UniProt P00533)
GSK3A (human) = GSK3A (human) (UniProt P49840)
CAMK2A (human) = CAMK2A (human) (UniProt Q9UQM7)

Sequence of MYLK3 (human) (Q32MK0 whole entry, looked up): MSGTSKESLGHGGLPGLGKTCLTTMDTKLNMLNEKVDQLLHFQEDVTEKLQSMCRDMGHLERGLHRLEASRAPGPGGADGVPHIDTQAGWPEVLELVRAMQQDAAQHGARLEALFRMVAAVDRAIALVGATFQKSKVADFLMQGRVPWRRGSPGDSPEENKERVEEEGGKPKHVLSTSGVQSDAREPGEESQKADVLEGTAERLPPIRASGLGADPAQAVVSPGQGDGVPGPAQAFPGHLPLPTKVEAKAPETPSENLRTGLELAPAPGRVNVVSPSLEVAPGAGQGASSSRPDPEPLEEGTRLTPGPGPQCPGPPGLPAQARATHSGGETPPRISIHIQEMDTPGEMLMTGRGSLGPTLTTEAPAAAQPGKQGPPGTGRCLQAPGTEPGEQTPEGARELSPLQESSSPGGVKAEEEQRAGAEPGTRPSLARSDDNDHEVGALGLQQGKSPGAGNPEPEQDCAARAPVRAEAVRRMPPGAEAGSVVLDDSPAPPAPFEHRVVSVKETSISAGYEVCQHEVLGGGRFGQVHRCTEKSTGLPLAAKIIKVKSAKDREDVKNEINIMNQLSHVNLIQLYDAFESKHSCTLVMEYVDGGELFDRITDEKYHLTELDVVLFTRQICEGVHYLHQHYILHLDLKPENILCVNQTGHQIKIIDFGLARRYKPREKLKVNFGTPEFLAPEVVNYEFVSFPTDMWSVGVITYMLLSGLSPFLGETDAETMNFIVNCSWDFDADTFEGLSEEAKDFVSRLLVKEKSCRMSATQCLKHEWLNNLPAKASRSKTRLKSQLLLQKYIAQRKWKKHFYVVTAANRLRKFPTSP
Sequence of FGR (human) (P09769 whole entry, looked up): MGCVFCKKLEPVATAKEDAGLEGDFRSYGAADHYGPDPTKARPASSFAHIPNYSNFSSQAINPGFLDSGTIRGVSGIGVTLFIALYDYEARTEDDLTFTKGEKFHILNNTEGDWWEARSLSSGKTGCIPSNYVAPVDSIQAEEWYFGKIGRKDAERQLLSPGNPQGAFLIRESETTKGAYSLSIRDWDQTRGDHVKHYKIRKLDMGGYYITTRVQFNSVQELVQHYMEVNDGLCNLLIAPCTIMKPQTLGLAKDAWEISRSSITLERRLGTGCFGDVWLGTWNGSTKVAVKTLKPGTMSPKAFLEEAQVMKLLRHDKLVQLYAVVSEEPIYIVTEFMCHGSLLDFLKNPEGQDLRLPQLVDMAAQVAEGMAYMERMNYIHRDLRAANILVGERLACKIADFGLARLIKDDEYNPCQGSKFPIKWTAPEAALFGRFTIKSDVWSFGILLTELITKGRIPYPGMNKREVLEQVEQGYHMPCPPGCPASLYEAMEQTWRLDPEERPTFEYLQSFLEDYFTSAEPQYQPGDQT

## CCc1ccc(C(=O)Nc2cc(CN3CCN(C)CC3)cc(C(F)(F)F)c2)cc1C#Cc1cnc2ccnn2c1
MYLK3 (human)
  kinase still bound, per cent of control: 100%
MAP3K3 (human)
  kinase still bound, per cent of control: 100%
FGR (human)
  kinase still bound, per cent of control: 59%
ROCK2 (human)
  kinase still bound, per cent of control: 100%
PKMYT1 (human)
  kinase still bound, per cent of control: 100%
MAP3K5 (human)
  kinase still bound, per cent of control: 100%
STK33 (human)
  kinase still bound, per cent of control: 100%
RPS6KA2 KD1 (human)
  kinase still bound, per cent of control: 78%
FGFR3 (human)
  kinase still bound, per cent of control: 100%
YES1 (human)
  kinase still bound, per cent of control: 70%
GRK1 (human)
  kinase still bound, per cent of control: 100%
[1]
  kinase still bound, per cent of control: 100%
[2]
  kinase still bound, per cent of control: 100%
SRMS (human)
  kinase still bound, per cent of control: 99%
SIK3 (human)
  kinase still bound, per cent of control: 100%
PIM1 (human)
  kinase still bound, per cent of control: 80%
BRAF (human)
  kinase still bound, per cent of control: 53%
BUB1 (human)
  kinase still bound, per cent of control: 100%
CDK3 (human)
  kinase still bound, per cent of control: 100%
WEE1 (human)
  kinase still bound, per cent of control: 100%
PKN3 (M.tuberculosis)
  kinase still bound, per cent of control: 78%
CIT (human)
  kinase still bound, per cent of control: 92%
[3]
  kinase still bound, per cent of control: 100%
MERTK (human)
  kinase still bound, per cent of control: 52%
MAP3K9 (human)
  kinase still bound, per cent of control: 100%
HIPK4 (human)
  kinase still bound, per cent of control: 78%
DAPK3 (human)
  kinase still bound, per cent of control: 80%
MAP3K1 (human)
  kinase still bound, per cent of control: 100%
IKBKE (human)
  kinase still bound, per cent of control: 100%
EPHB4 (human)
  kinase still bound, per cent of control: 100%
PLK1 (human)
  kinase still bound, per cent of control: 80%
CaMK1 (human)
  kinase still bound, per cent of control: 75%
CSNK1G2 (human)
  kinase still bound, per cent of control: 100%
LIMK1 (human)
  kinase still bound, per cent of control: 85%
AURKB (human)
  kinase still bound, per cent of control: 100%
SGK3 (human)
  kinase still bound, per cent of control: 100%
PAK3 (human)
  kinase still bound, per cent of control: 41%
EGFR (human)
  kinase still bound, per cent of control: 100%
GSK3A (human)
  kinase still bound, per cent of control: 100%
CAMK2A (human)
  kinase still bound, per cent of control: 92%
